For 31 molecules, IC50 results are on record in patent US20110130380A1, “Heteroaryl Kinase Inhibitors” (priority 2009, published 2011).

Where only a bound is given, the exact number is not on record here.

In one test the target is Cdk9/cyclinT1 (Homo sapiens, UniProt P50750). Description: Cdk9/cyclinT1 IMAP Protocol (fluorescence polarization kinase assay). The conditions noted are these: Cdk9_cyclinT1_IC50, Table V; generated using one of the two Cdk9/cyclinT1 assays (IMAP or Alpha Screen), not stated which; ATP 6 uM.
Chain of Cdk9/cyclinT1 (P50750 whole entry): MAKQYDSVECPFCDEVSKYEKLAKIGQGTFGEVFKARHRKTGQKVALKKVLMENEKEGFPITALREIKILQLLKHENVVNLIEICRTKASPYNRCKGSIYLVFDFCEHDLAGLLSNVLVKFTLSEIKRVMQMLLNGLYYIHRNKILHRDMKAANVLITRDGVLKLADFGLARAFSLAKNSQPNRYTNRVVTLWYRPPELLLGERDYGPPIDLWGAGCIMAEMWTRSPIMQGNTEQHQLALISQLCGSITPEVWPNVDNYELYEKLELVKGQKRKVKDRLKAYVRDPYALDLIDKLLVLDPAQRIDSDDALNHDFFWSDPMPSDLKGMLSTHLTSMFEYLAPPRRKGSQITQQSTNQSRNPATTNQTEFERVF
Chain of Cdk9/cyclinT1 (O60563 whole entry partner): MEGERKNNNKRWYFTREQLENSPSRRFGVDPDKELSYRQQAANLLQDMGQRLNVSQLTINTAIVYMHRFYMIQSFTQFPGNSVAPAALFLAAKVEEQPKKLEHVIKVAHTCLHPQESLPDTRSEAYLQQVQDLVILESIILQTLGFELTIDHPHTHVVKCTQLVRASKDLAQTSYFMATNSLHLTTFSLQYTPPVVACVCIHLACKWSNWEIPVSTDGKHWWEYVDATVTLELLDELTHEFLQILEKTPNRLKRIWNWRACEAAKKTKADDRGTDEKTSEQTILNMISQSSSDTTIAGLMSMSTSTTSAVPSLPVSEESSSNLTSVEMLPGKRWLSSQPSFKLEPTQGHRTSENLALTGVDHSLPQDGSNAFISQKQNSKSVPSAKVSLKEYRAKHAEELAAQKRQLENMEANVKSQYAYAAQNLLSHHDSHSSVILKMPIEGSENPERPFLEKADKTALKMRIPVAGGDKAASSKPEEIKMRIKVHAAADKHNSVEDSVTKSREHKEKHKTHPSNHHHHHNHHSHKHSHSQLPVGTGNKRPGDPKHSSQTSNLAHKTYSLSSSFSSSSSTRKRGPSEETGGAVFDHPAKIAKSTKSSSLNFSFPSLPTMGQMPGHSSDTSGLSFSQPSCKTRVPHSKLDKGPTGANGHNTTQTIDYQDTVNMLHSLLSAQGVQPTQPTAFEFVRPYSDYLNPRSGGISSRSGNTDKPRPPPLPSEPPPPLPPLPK
The term IC50 denotes the concentration that gives 50% inhibition. Molecule `CC(C)C(=O)Nc1cc(-c2nc(NCC3CCOCC3)ccc2Cl)c(Cl)cn1` [Example 86, N-{3,5′-Dichloro-6-[(tetrahydro-pyran-4-ylmethyl)-amino]-[2,4′]bipyridinyl-2′-yl}-isobutyramide] came in with a concentration for half-maximal inhibition (IC50) below 8 nM.

The molecule `CC(=O)N1CCC[C@H](C(=O)Nc2cc(-c3cccc(NCC4CCOCC4)n3)c(Cl)cn2)C1` [Example 89, (S)-1-Acetyl-piperidine-3-carboxylic acid {5′-chloro-6-[(tetrahydro-pyran-4-ylmethyl)-amino]-[2,4′]bipyridinyl-2′-yl}-amide] returned an IC50 below 8 nM.

Molecule `O=C1CCC(C(=O)Nc2cc(-c3cccc(NCC4CCOCC4)n3)c(Cl)cn2)CN1` (stereo not shown) [Example 61, 6-Oxo-piperidine-3-carboxylic acid {5′-chloro-6-[(tetrahydro-pyran-4-ylmethyl)-amino]-[2,4′]bipyridinyl-2′-yl}-amide] returned an IC50 below 8 nM.

In the case of `O=C(Nc1cc(-c2nc(NCC3CCOCC3)ccc2Cl)c(Cl)cn1)[C@@H]1CCNC1` [Example 88, (R)-Pyrrolidine-3-carboxylic acid {3,5′-dichloro-6-[(tetrahydro-pyran-4-ylmethyl)-amino]-[2,4′]bipyridinyl-2′-yl}-amide], the IC50 was below 8 nM.

On to `CC[C@H]1CC[C@H](C(=O)Nc2cc(-c3cccc(NCC4CCOCC4)n3)c(Cl)cn2)CN1` (single isomer, unassigned) [Example 241], for which inhibition was half-maximal at 9 nM (IC50).

For the molecule `CC1(C)COC(CNc2cccc(-c3cc(NC(=O)[C@@H]4CCCNC4)ncc3Cl)n2)CO1` (stereo partly drawn) [Example 218, (R)-Piperidine-3-carboxylic acid {5′-chloro-6-[(5,5-dimethyl-[1,4]dioxan-2-ylmethyl)-amino]-[2,4′]bipyridinyl-2′-yl}-amide], the midpoint of inhibition, the IC50, lay at 1 nM.

The molecule `C[C@@H]1CC[C@@H](C(=O)Nc2cc(-c3cccc(NCC4CCOCC4)n3)c(Cl)cn2)CN1` (racemic) [Example 127, (3R,6R)-/(3S,6S)-6-methyl-piperidine-3-carboxylic acid {5′-chloro-6-[(tetrahydro-pyran-4-ylmethyl)-amino]-[2,4′]bipyridinyl-2′-yl}-amide] displayed an IC50 of 9 nM.

The molecule `CC[C@@H]1CC[C@@H](C(=O)Nc2cc(-c3ccc(F)c(NCC4CCOCC4)n3)ccn2)CN1` (racemic) [Example 251, (3R,6R)-/(3S,6S)-6-Ethyl-piperidine-3-carboxylic acid {5-fluoro-6-[(tetrahydro-pyran-4-ylmethyl)-amino]-[2,4′]bipyridinyl-2′-yl}-amide] gave an IC50 of 1 nM.

`CO[C@H]1CNC[C@@H]1C(=O)Nc1cc(-c2nc(NCC3CCOCC3)c(F)cc2Cl)c(Cl)cn1` [Example 181, (3S,4R)-4-Methoxy-pyrrolidine-3-carboxylic acid {3,5′-dichloro-5-fluoro-6-[(tetrahydro-pyran-4-ylmethyl)-amino]-[2,4′]bipyridinyl-2′-yl}-amide]: half-maximal inhibition (IC50) was put at 1 nM.

With `O=C(Nc1cc(-c2cccc(NCC3CCOCC3)n2)c(Cl)cn1)C1(F)CCCNC1` (single isomer, unassigned) [Example 117], the IC50 is 230 nM.

`CC(=O)N1CCC(CNc2cccc(-c3cc(NC(=O)[C@@H]4CCCNC4)ncc3Cl)n2)CC1` [Example 30, (R)-Piperidine-3-carboxylic acid {6-[(1-acetyl-piperidin-4-ylmethyl)-amino]-5′-chloro-[2,4′]bipyridinyl-2′-yl}-amide] showed an IC50 below 8 nM.

Molecule `CO[C@H]1CNC[C@@H]1C(=O)Nc1cc(-c2cccc(NCC3CCOCC3)n2)c(Cl)cn1` [Example 138, (3S,4R)-4-Methoxy-pyrrolidine-3-carboxylic acid {5′-chloro-6-[(tetrahydro-pyran-4-ylmethyl)-amino]-[2,4′]bipyridinyl-2′-yl}-amide] yielded a half-inhibitory concentration (IC50) below 8 nM.

Regarding `O=C(Nc1cc(-c2ccc(F)c(NCC3CCOCC3)n2)c(Cl)cn1)[C@@H]1CCNC1` [Example 143, (R)-Pyrrolidine-3-carboxylic acid {5′-chloro-5-fluoro-6-[(tetrahydro-pyran-4-ylmethyl)-amino]-[2,4′]bipyridinyl-2′-yl}-amide], 1 nM corresponded to half-maximal inhibition (IC50).

Take `CC(=O)N1CCC[C@@H](C(=O)Nc2cc(-c3cccc(NCC4CCOCC4)n3)c(Cl)cn2)C1` [Example 82, (R)-1-acetyl-piperidine-3-carboxylic acid {5′-chloro-6-[(tetrahydro-pyran-4-ylmethyl)-amino]-[2,4′]bipyridinyl-2′-yl}-amide]: inhibition was half-maximal at 631 nM (IC50).

For the molecule `C[C@@H]1CC[C@@H](C(=O)Nc2cc(-c3cccc(NC[C@H]4CCOC(C)(C)C4)n3)c(Cl)cn2)CN1` (mixture of isomers) [Example 227, (3R,6R)-/(3S,6S)-6-Methyl-piperidine-3-carboxylic acid {5′-chloro-6-[((S)-2,2-dimethyl-tetrahydro-pyran-4-ylmethyl)-amino]-[2,4′]bipyridinyl-2′-yl}-amide], half-maximal inhibition (IC50) was put at 1 nM.

`CNCCC(=O)Nc1cc(-c2cccc(NCC3CCOCC3)n2)c(Cl)cn1` [Example 64, N-{5′-Chloro-6-[(tetrahydro-pyran-4-ylmethyl)-amino]-[2,4′]bipyridinyl-2′-yl}-3-methylamino-propionamide] registered an IC50 of 37 nM.

As to `CN(C)c1cccc(-c2cc(NC(=O)[C@@H]3CCCNC3)ncc2Cl)n1` [Example 36, (R)-Piperidine-3-carboxylic acid (5′-chloro-6-dimethylamino-[2,4′]bipyridinyl-2′-yl)-amide], half-maximal inhibition (IC50) required 102 nM.

The molecule `O=C(Nc1cc(-c2nc(NCC3CCOCC3)ccc2F)c(Cl)cn1)C1CNCCOC1` (stereo not shown) [Example 204, [1,4]Oxazepane-6-carboxylic acid {5′-chloro-3-fluoro-6-[(tetrahydro-pyran-4-ylmethyl)-amino]-[2,4′]bipyridinyl-2′-yl}-amide] yielded a half-inhibitory concentration (IC50) of 1 nM.

For the molecule `O=C(Cc1cccnc1)Nc1cc(-c2cccc(NCC3CCOCC3)n2)c(Cl)cn1` [Example 66, N-{5′-Chloro-6-[(tetrahydro-pyran-4-ylmethyl)-amino]-[2,4′]bipyridinyl-2′-yl}-2-pyridin-3-yl-acetamide], the midpoint of inhibition, the IC50, lay at 9 nM.

On to `N[C@H]1CC[C@@H](C(=O)Nc2cc(-c3cccc(NCC4CCOCC4)n3)c(Cl)cn2)C1` [Example 48, (1R,3S)-3-Amino-cyclopentanecarboxylic acid {5′-chloro-6-[(tetrahydro-pyran-4-ylmethyl)-amino]-[2,4′]bipyridinyl-2′-yl}-amide], for which the IC50 is below 8 nM.

For the molecule `COC(=O)N1CCC[C@H](C(=O)Nc2cc(-c3nc(N[C@@H](C)C4CCOCC4)ccc3Cl)c(Cl)cn2)C1` [Example 154, (S)-3-{3,5′-Dichloro-6-[(S)-1-(tetrahydro-pyran-4-yl)-ethylamino]-[2,4′]bipyridinyl-2′-ylcarbamoyl}-piperidine-1-carboxylic acid methyl ester], inhibition was half-maximal at 15 nM (IC50).

As to `N[C@H]1CC[C@@H](C(=O)Nc2cc(-c3nc(NCC4CCOCC4)ccc3Cl)c(Cl)cn2)C1` [Example 100, (1R,3S)-3-Amino-cyclopentanecarboxylic acid {3,5′-dichloro-6-[(tetrahydro-pyran-4-ylmethyl)-amino]-[2,4′]bipyridinyl-2′-yl}-amide], the IC50 was below 8 nM.

On to `COC(=O)N1CCC[C@H](C(=O)Nc2cc(-c3nc(N[C@H](C)C4CCOCC4)ccc3Cl)c(Cl)cn2)C1` [Example 153, (S)-3-{3,5′-Dichloro-6-[(R)-1-(tetrahydro-pyran-4-yl)-ethylamino]-[2,4′]bipyridinyl-2′-ylcarbamoyl}-piperidine-1-carboxylic acid methyl ester], for which the IC50 came to 26 nM.

Turning to `CC(=O)Nc1cc(-c2cccc(NCC3CCOCC3)n2)c(Cl)cn1` [Example 69, N-{5′-Chloro-6-[(tetrahydro-pyran-4-ylmethyl)-amino]-[2,4′]bipyridinyl-2′-yl}-acetamide], the IC50 stood at 139 nM.

In turn, `N[C@@H]1CC[C@@H](C(=O)Nc2cc(-c3cccc(NCC4CCOCC4)n3)c(Cl)cn2)C1` [Example 49, (1R,3R)-3-Amino-cyclopentanecarboxylic acid {5′-chloro-6-[(tetrahydro-pyran-4-ylmethyl)-amino]-[2,4′]bipyridinyl-2′-yl}-amide] registered an IC50 below 8 nM.

As to `O=C(Nc1cc(-c2ccc(F)c(NCC3CCOCC3)n2)c(Cl)cn1)[C@H]1CNCCO1` [Example 205, (R)-Morpholine-2-carboxylic acid {5′-chloro-5-fluoro-6-[(tetrahydro-pyran-4-ylmethyl)-amino]-[2,4′]bipyridinyl-2′-yl}-amide], the IC50 came to 5 nM.

For `N[C@@H]1CC[C@H](C(=O)Nc2cc(-c3cccc(NCC4CCOCC4)n3)c(Cl)cn2)C1` [Example 47, (1S,3R)-3-Amino-cyclopentanecarboxylic acid {5′-chloro-6-[(tetrahydro-pyran-4-ylmethyl)-amino]-[2,4′]bipyridinyl-2′-yl}-amide], the IC50 was below 8 nM.

`CC1(C)COC(CNc2nc(-c3cc(NC(=O)[C@@H]4CCCNC4)ncc3Cl)ccc2F)CO1` (stereo partly drawn) [Example 255, (R)-Piperidine-3-carboxylic acid {5′-chloro-6-[(5,5-dimethyl-[1,4]dioxan-2-ylmethyl)-amino]-5-fluoro-[2,4′]bipyridinyl-2′-yl}-amide] came in with an IC50 of 1 nM.

In turn, `O=C(Nc1cc(-c2cccc(NCC3CCOCC3)n2)c(Cl)cn1)[C@H]1CNC[C@@H]1O` [Example 122, (3S,4R)-4-Hydroxy-pyrrolidine-3-carboxylic acid {5′-chloro-6-[(tetrahydro-pyran-4-ylmethyl)-amino]-[2,4′]bipyridinyl-2′-yl}-amide] had an IC50 of 15 nM.

In the case of `O=C(Nc1cc(-c2cccc(NCc3cccc(F)c3)n2)c(Cl)cn1)[C@@H]1CCCNC1` [Example 1, (R)-Piperidine-3-carboxylic acid [5′-chloro-6-(3-fluoro-benzylamino)-[2,4+]bipyridinyl-2′-yl]-amide], the IC50 is below 8 nM.

The same test, now with this note: Cdk9_cyclinT1_IC50, generated using one of the two Cdk9/cyclinT1 assays (IMAP or Alpha Screen), not specified per value; ATP 6 uM.
Molecule `O=C(Nc1cc(-c2cncc(NCC3CCOCC3)c2)c(Cl)cn1)[C@@H]1CCCNC1` [Example 301, (R)-Piperidine-3-carboxylic acid {5′-chloro-5-[(tetrahydro-pyran-4-ylmethyl)-amino]-[3,4′]bipyridinyl-2′-yl}-amide] came in with an IC50 below 8 nM.
